In publication PMC11125126, “Synthesis, Characterisation, and In Vitro Evaluation of Biocompatibility, Antibacterial and Antitumor Activity of Imidazolium Ionic Liquids” (Pharmaceutics, 2024):
Like-named read-outs stand apart in the source and are kept apart here.

Columns and labels:
Listeria monocytogenes = assay: MIC/MBC by broth dilution, pure ILs; type: cell-based; details: 24 h
Description: (§1) Within the Di3A (Dipartimento di Agricoltura, Alimentazione e Ambiente, University of Catania, Italy) microbial collection, two Gram-negative strains (Escherichia coli and Pseudomonas fluorescens) and one Gram-positive strain (Listeria monocytogenes) were studied in order to define the potential efficacy of ionic liquids in relation to the different structure of the bacterial cell wall.
(§2) For the pure ILs, the minimal inhibitory concentration (MIC) and minimal bactericidal concentration (MBC) were determined in Nutrient Broth (NB, Oxoid, Basingstoke, UK) medium by broth dilution method, according to the Clinical and Laboratory Standards Institute (CLSI).
(§3) All the bacterial strains were individually grown for 24 h at 35 or 27 °C for P. fluorescens, with shaking. After the incubation period, the cells were collected by centrifugation and re-suspended in sterile NB to obtain a stock culture of 10^9 CFU/mL.
(§4) Tubes containing 5 mL of NB with decreasing concentrations of ILs (1000, 500, 250, 125, 50, 25, 12.5, 5 and 0 µg/mL) were inoculated with each bacterial stock culture at a final concentration of 10^6 CFU/mL.
(§5) Tubes were incubated at 35 or 27 °C in an orbital shaker and evaluated for the viable count of E. coli, P. fluorescens, and L. monocytogenes after 24 h by spread-plating 100 µL of each suspension on Nutrient Agar (NA, Oxoid, Basingstoke, UK) incubated for 24–48 h at 35 or 27 °C.
(§6) In this study, MIC and MBC are expressed in both µg/mL and µM to make the comparison with the literature data easy. Each experiment was performed in triplicate.

Escherichia coli = assay: MIC/MBC by broth dilution, pure ILs; type: cell-based; details: 24 h
Description: as §1, §2, §3, §4, §5, §6

HDF cells = assay: Direct cytotoxicity test of IL powders, Alamar blue assay; type: cell-based, human; details: 24 h of incubation
Description: (§7) Cytotoxicity studies on IL powders were carried out using human dermal fibroblast (HDF) cells (Sigma-Aldrich) and a human breast cancer cell line (MCF7). In addition, ILs loaded in PVC polymer substrates were tested for their cytocompatibility and adhesion properties on the HDF. HDF cells were cultured in 75 cm^2 cell culture flask in Dulbecco’s Modified Eagle’s Medium (DMEM) supplemented with 20% Foetal Bovine Serum (FBS), 1% non-essential amino acid (NEAA), antibiotic solution (streptomycin 100 µg/mL and penicillin 100 U/mL, Sigma Aldrich) and 2 mM L-glutamine. MCF7 cells were grown in DMEM with 10% FBS and the same antibiotics as mentioned above. The cells were maintained in a culture at 37 °C, with 5% CO2 and 95% humidity to achieve a confluent layer. Control cells were cultured in a complete medium without any compounds in tissue culture plates. Before biological testing, the samples were sterilised using a UV light for 2 h.
(§8) A direct cytotoxicity test was used to assess the in vitro cytotoxicity of IL powders. IL powders with different alkyl chains were dissolved in DMEM media to obtain solutions at various concentrations (0.5–1–5 and 10 µg/mL) to determine the best formulation.
(§9) After 24 h of incubation of IL solutions (200 µL) with seeded cells under specific environmental conditions (T = 37 °C, HR = 95%, CO2 = 5%), cell viability was tested using the Alamar blue assay (AbD Serotec, Milan, Italy) following the manufacturer’s instructions.
(§10) In summary, each well received a 200 µL aliquot of Alamar Blue^TM diluted 1:10 in phenol red-free medium and was incubated for 4 h at 37 °C, 5% CO2. Following this, 100 µL of the solution was transferred to a 96-well plate for colorimetric analysis. Wells with no cells were included to account for any background interference from the redox indicator. Optical density was immediately measured using a spectrophotometer (Victor X3, Perkin Elmer, Waltham, MA, USA) at 560 and 595 nm wavelengths. The results were presented as a percentage of cell viability compared to that of the control (cells grown on tissue culture plates).
(§11) Here, the antitumor activity and cytotoxicity of the synthetised imidazolium-based ionic liquids have been determined for breast cancer cells (MCF-7) and healthy human fibroblast (HDF) cells. […] Table 5 reports the IC50 values in µg/mL and µM to make their comparison with the literature data easy.

MCF7 cancer cells = assay: as above; type: cell-based, human; details: 24 h of incubation
Description: as §7, §8, §9, §10, §11

Pseudomonas fluorescens = assay: MIC/MBC by broth dilution, pure ILs; type: cell-based; details: 24 h
Description: as §1, §2
All the bacterial strains were individually grown for 24 h at 35 or 27 °C for P. fluorescens, with shaking. After the incubation period, the cells were collected by centrifugation and re-suspended in sterile NB to obtain a stock culture of 10^9 CFU/mL. […]
as §5, §6

[1] = NI = no inhibition at IL maximum concentration used (1000 µM), read-out: MBC
[2] = NI = no inhibition at IL maximum concentration used (1000 µM), read-out: MIC

| SMILES | MBC (Listeria monocytogenes; 10^6 CFU/mL) | MIC (Listeria monocytogenes; 10^6 CFU/mL) | MBC (Listeria monocytogenes; [1]) | MIC (Listeria monocytogenes; [2]) | MBC (Escherichia coli; 10^6 CFU/mL) | MIC (Escherichia coli; 10^6 CFU/mL) | MBC (Escherichia coli; [1]) | MIC (Escherichia coli; [2]) | IC50 (HDF cells; n = 3) | IC50 HDF (HDF cells; n = 3, mean ± SD) | IC50 MCF7 (MCF7 cancer cells; n = 3) | IC50 (MCF7 cancer cells; n = 3, mean ± SD) | MBC (Pseudomonas fluorescens; 10^6 CFU/mL) | MIC (Pseudomonas fluorescens; 10^6 CFU/mL) | MBC (Pseudomonas fluorescens; [1]) | MIC (Pseudomonas fluorescens; [2]) | MBC (Listeria monocytogenes; 10^6 CFU/mL, read-out: MBC) | MIC (Listeria monocytogenes; 10^6 CFU/mL, read-out: MIC) | IC50 (MCF7 cancer cells; Homo sapiens, n = 3) | IC50 (MCF7 cancer cells; Homo sapiens, n = 3, mean ± SD) | further results |
| --- | --- | --- | --- | --- | --- | --- | --- | --- | --- | --- | --- | --- | --- | --- | --- | --- | --- | --- | --- | --- | --- |
| CCCCCCCCCCCCCCCCCC[n+]1ccn(C)c1.COC(=O)c1cc(C(=O)OC)cc(S(=O)(=O)[O-])c1 [C18mimDMSIP] | 304.4 µg/mL | 304.4 µg/mL | 500 µM | 500 µM | 608.83 µg/mL | 608.83 µg/mL | 1000 µM | 1000 µM | 6.59 µM | 4.01 ± 0.14 µg/mL | 1.96 µg/mL | 3.22 µM |  |  |  |  |  |  |  |  |  |
| CCCCCCCCCC[n+]1ccn(C)c1.COC(=O)c1cc(C(=O)OC)cc(S(=O)(=O)[O-])c1 [C10mimDMSIP] | 496.62 µg/mL | 124.16 µg/mL | 1000 µM | 250 µM | 248.31 µg/mL | 124.16 µg/mL | 500 µM | 250 µM | 11.2 µM | 5.56 ± 0.04 µg/mL | 5.42 µg/mL | 10.9 µM | 496.62 µg/mL | 248.31 µg/mL | 1000 µM | 500 µM |  |  |  |  |  |
| CCCCCCCCCCCCCCCC[n+]1ccn(C)c1.COC(=O)c1cc(C(=O)OC)cc(S(=O)(=O)[O-])c1 [C16mimDMSIP] | 72.60 µg/mL | 29.04 µg/mL | 125 µM | 50 µM | 72.60 µg/mL | 72.60 µg/mL | 125 µM | 125 µM | 9.57 µM | 5.56 ± 0.04 µg/mL | 3.84 µg/mL | 6.61 µM | 145.19 µg/mL | 145.19 µg/mL | 250 µM | 250 µM |  |  |  |  |  |
| CCCCCCCCCCCCCC[n+]1ccn(C)c1.COC(=O)c1cc(C(=O)OC)cc(S(=O)(=O)[O-])c1 [C14mimDMSIP] | 69.09 µg/mL | 27.64 µg/mL | 125 µM | 50 µM | 27.64 µg/mL | 13.82 µg/mL | 50 µM | 25 µM | 10.1 µM | 5.56 ± 0.04 µg/mL | 2.91 µg/mL | 5.22 µM | 69.09 µg/mL | 27.64 µg/mL | 125 µM | 50 µM |  |  |  |  |  |
| CCCCCCCCCCCCCC[n+]1ccn(C)c1.F[B-](F)(F)F [C14mimBF4] |  |  | 12.5 µM | 12.5 µM |  |  | 25 µM | 12.5 µM |  |  |  |  |  |  | 125 µM | 25 µM | 4.58 µg/mL | 4.58 µg/mL | 4.41 µg/mL | 12.1 µM | MBC (Pseudomonas fluorescens; 10^6 CFU/mL, read-out: MBC): 45.8 µg/mL; MIC (Pseudomonas fluorescens; 10^6 CFU/mL, read-out: MIC): 9.16 µg/mL; MBC (Escherichia coli; 10^6 CFU/mL, read-out: MBC): 9.16 µg/mL; MIC (Escherichia coli; 10^6 CFU/mL, read-out: MIC): 4.58 µg/mL; IC50 (HDF cells; Homo sapiens, n = 3): 10.3 µM; IC50 (HDF cells; Homo sapiens, n = 3, mean ± SD): 3.78 ± 0.17 µg/mL |
| CCCCCCCCCCCCCCCCCC[n+]1ccn(C)c1.F[B-](F)(F)F [C18mimBF4] |  |  | 1000 µM | 500 µM |  |  | 250 µM | 125 µM |  |  |  |  |  |  |  | > 1000 µM | 422 µg/mL | 211 µg/mL | 1.95 µg/mL | 4.61 µM | MBC (Escherichia coli; 10^6 CFU/mL, read-out: MBC): 106 µg/mL; MIC (Escherichia coli; 10^6 CFU/mL, read-out: MIC): 52.8 µg/mL; IC50 (HDF cells; Homo sapiens, n = 3): 10.8 µM; IC50 (HDF cells; Homo sapiens, n = 3, mean ± SD): 4.57 ± 0.06 µg/mL |
| COc1cccc2c1C(=O)c1c(O)c3c(c(O)c1C2=O)C[C@@](O)(C(=O)CO)C[C@@H]3O[C@H]1C[C@H](N)[C@H](O)[C@H](C)O1 [Doxorubicin, reference compound] |  |  |  |  |  |  |  |  |  |  |  |  |  |  |  |  |  |  | 7.2 µg/mL | 13.2 µM |  |
| CCCCCCCCCCCCCCCC[n+]1ccn(C)c1.F[B-](F)(F)F [C16mimBF4] |  |  | 250 µM | 50 µM |  |  | 125 µM | 25 µM |  |  |  |  |  |  | 250 µM | 125 µM | 98.6 µg/mL | 19.7 µg/mL | 1.64 µg/mL | 4.16 µM | MBC (Pseudomonas fluorescens; 10^6 CFU/mL, read-out: MBC): 98.6 µg/mL; MIC (Pseudomonas fluorescens; 10^6 CFU/mL, read-out: MIC): 49.3 µg/mL; MBC (Escherichia coli; 10^6 CFU/mL, read-out: MBC): 49.3 µg/mL; MIC (Escherichia coli; 10^6 CFU/mL, read-out: MIC): 9.86 µg/mL; IC50 (HDF cells; Homo sapiens, n = 3): 20.9 µM; IC50 (HDF cells; Homo sapiens, n = 3, mean ± SD): 8.26 ± 0.03 µg/mL |
